Reference: patent US20260139254A1, “INTERFERING RNA FOR INHIBITING TOP1 GENE EXPRESSION AND USE THEREOF” (JENKEM TECHNOLOGY CO., LTD. (BEIJING), priority 2022, published 2026)

Key:
Assay type in all cases: cell-based, human
TOP1 mRNA [1] = test: Dose-dependence of siTOP1-1604 on TOP1 mRNA in PC-3 cells (qPCR); conditions: for Relative expression level of TOP1, mean value: 24 h, siNC = 100.00
Description: (§1) A transfection system was prepared as follows on the day of transfection: siTOP1-1604 was diluted with an appropriate amount of Opti-MEM culture medium; Lipofectamine™ RNAiMAX (Lipo) transfection reagent was diluted with another appropriate amount of Opti-MEM culture medium and left to stand at room temperature for 5 min; and the two dilutions were uniformly mixed, left to stand at room temperature for 5 min, and then added to 24-well cell culture plates at 50 μL/well. PC-3 human prostate cancer cells were added to one of the 24-well cell culture plates at 4×10^5 cells/well, the culture medium being 450 μL of F12K containing 10% FBS; HCT116 human colon cancer cells were added to the other of the 24-well cell culture plates at 3.5×10^5 cells/well, the culture medium being 450 μL of IMDM containing 10% FBS. The cells were uniformly mixed with the siRNA. The final transfection volume was 500 μL, and the working concentrations of the siRNA were 10, 1.67, 0.27, 0.046, 0.0077, 0.0013, and 0.00021 nM. The control groups were Blank (Opti-MEM at the equal volume), Lipofectamine™ RNAiMAX (Lipo) transfection reagent, as well as 10 nM of siNC.
(§2) After 24 h of transfection, the cells were collected. The total cellular RNA was extracted according to the method in Example 2, and the level of TOP1 mRNA was detected. […] Nonlinear fitting was performed on the qPCR results using Graphpad software and IC50 of siTOP1 was calculated.

TOP1 mRNA [2] = test: Inhibitory effect of siTOP1 on TOP1 mRNA in A375 cells (Lipofectamine RNAiMAX transfection, Q-PCR); conditions: A375, siRNA 50 nM, 48 h after transfection
Description: • 1) On the day before transfection, A375 melanoma cells were seeded into a 24-well plate at 6×10^4 to 8×10^4 cells/well, the culture medium being 500 μL of DMEM containing 10% FBS and 1% Penicillin-Streptomycin, and the plate was placed in an incubator with 5% CO2 at 37° C. for 24 h to allow the cells to adhere to the wall. Three replicate wells were made for each group. • 2) On the day of transfection, the culture medium was changed to 450 μL of DMEM culture medium without antibiotics (containing 10% FBS). • 3) The siRNAs were diluted with 25 μL of Opti-MEM culture medium; the siNC (the siNC (reference: O Sordet et al., 2008) having the target sequence of 5′-TTCTCCGAACGTGTCACGT-3′ (SEQ ID NO: 46)) at the same concentration was the negative control group; Lipofectamine™ RNAiMAX (Lipo) transfection reagent was diluted with another 25 μL of Opti-MEM culture medium and left to stand at room temperature for 5 min; and the two dilutions were uniformly mixed and left to stand at room temperature for 5 min. • 4) 50 μL of the mixed solution described above was added to each well to obtain a final transfection volume of 500 μL. and the working concentration of the siRNA was 50 nM. • 5) After the transfection, the cells were cultured for 48 h and then collected.
• 1) RNA was extracted using an Eastep™ Super total RNA extraction kit; 300 μL of RNA lysis solution and 300 μL of RNA diluent were added; and the mixture was uniformly mixed and then transferred to a 1.5 mL centrifuge tube. • 2) The mixture was centrifuged at 14000 g for 5 min, and the supernatant was carefully pipetted into a new 1.5 mL centrifuge tube. • 3) A 0.5-fold volume of absolute ethanol was added, and the mixture was uniformly mixed by allowing the tube to be repeatedly upside down 15-20 times. Subsequently, the mixture was transferred to a centrifuge column and centrifuged at 12000 g for 1 min. The filtrate was discarded. • 4) 600 μL of RNA wash buffer was added, and the mixture was centrifuged at 12000 g for 1 min. The filtrate was discarded. • 5) 50 μL of DNase I incubation buffer was added, followed by DNA digestion at room temperature for 15 min. • 6) 600 μL of RNA wash buffer was added, the mixture was centrifuged at 12000 g for 1 min, and the filtrate was discarded. This procedure was repeated once. • 7) The mixture was centrifuged at 14000 g for 2 min to remove the residual RNA wash buffer, and then the centrifuge column was placed in a collection tube. • 8) An appropriate amount of RNase-free H2O was added, and the mixture was left to stand at room temperature for 12 min and centrifuged at 14000 g for 1 min. The collected RNA was preserved at −70° C. for later use.
• 1) The mass and concentration of the RNA were detected using NanoDrop™, and an RNA template was prepared as follows: RNase-free H2O was added to 1 μg of RNA to a volume of 10 μL; the mixture was placed at 70° C. for 5 min and then placed in an ice bath for 5 min for later use. • 2) A reaction system was established according to Table 2:
• 3) The reaction system described above was uniformly mixed and centrifuged to collect the liquid at the bottom of a tube, and the mixture was subjected to the procedures of 25° C. for 5 min, 42° C. for 60 min, and 72° C. for 15 min, thereby giving the cDNA product. • 4) A Q-PCR system was prepared according to Table 3, and the level of TOP1 gene was detected:
GAPDH was used as an endogenous reference, and the sequences of the primers used for detection are as follows: […]

TOP1 mRNA [3] = test: Inhibitory effects of modified sequences of siTOP1-1604 on TOP1 mRNA in PC-3 cells; conditions: PC-3, siRNA 50 nM, 48 h after transfection, Blank = 100.00
Description: PC-3 human prostate cancer cells were transfected with the modified siTOP1 according to the method in Example 2 at a siRNA working concentration of 50 nM. TOP1 mRNA levels were detected 48 h after the transfection. The control groups were Blank (Opti-MEM at the equal volume), Lipofectamine™ RNAiMAX (Lipo) transfection reagent, and the positive control unmodified siTOP-1604.

TOP1 mRNA [4] = test: Dose-dependence of siTOP1-1604 on TOP1 mRNA in HCT116 cells (qPCR); conditions: for Relative expression level of TOP1, mean value: 24 h, siNC = 100.00
Description: as §1, §2

## siTOP1-1604: siRNA targeting TOP1; target SEQ ID NO: 9, sense strand SEQ ID NO: 24, antisense strand SEQ ID NO: 39 (sense GUGUGGACAAGAUCCGGAAUU; antisense UUCCGGAUCUUGUCCACACUU; described as unmodified parent siRNA, further chemistry not given here)
TOP1 mRNA [1]; PC-3, 0.00021 nM
  Relative expression level of TOP1, mean value: 125.48
TOP1 mRNA [1]; PC-3, 0.0013 nM
  Relative expression level of TOP1, mean value: 96.21
TOP1 mRNA [1]; PC-3, 0.0077 nM
  Relative expression level of TOP1, mean value: 122.71
TOP1 mRNA [1]; PC-3, 0.046 nM
  Relative expression level of TOP1, mean value: 47.64
TOP1 mRNA [1]; PC-3, 0.27 nM
  Relative expression level of TOP1, mean value: 24.94
TOP1 mRNA [1]; PC-3, 1.67 nM
  Relative expression level of TOP1, mean value: 21.05
TOP1 mRNA [1]; PC-3, 10 nM
  Relative expression level of TOP1, mean value: 19.66
TOP1 mRNA [1]; PC-3, 24 h, relative to siNC, nonlinear fit of qPCR results
  IC50: 0.075 nM
TOP1 mRNA [2]
  Inhibition of TOP1 expression: 94.0%
TOP1 mRNA [2]; Blank = 100.00, GAPDH reference
  Relative expression level of gene, mean value: 5.97
TOP1 mRNA [3]
  Relative expression level, mean value: 4.03
TOP1 mRNA [4]; HCT116, 0.00021 nM
  Relative expression level of TOP1, mean value: 73.06
TOP1 mRNA [4]; HCT116, 0.0013 nM
  Relative expression level of TOP1, mean value: 74.72
TOP1 mRNA [4]; HCT116, 0.0077 nM
  Relative expression level of TOP1, mean value: 54.01
TOP1 mRNA [4]; HCT116, 0.046 nM
  Relative expression level of TOP1, mean value: 17.23
TOP1 mRNA [4]; HCT116, 0.27 nM
  Relative expression level of TOP1, mean value: 7.57
TOP1 mRNA [4]; HCT116, 1.67 nM
  Relative expression level of TOP1, mean value: 7.91
TOP1 mRNA [4]; HCT116, 10 nM
  Relative expression level of TOP1, mean value: 3.98
TOP1 mRNA [4]; HCT116, 24 h, relative to siNC, nonlinear fit of qPCR results
  IC50: 0.006 nM
